Where two headings read alike, the source gives them in different places. Marks after values point to notes of the source that are not given here. Where a SMILES comes first, the peptide text is derived from it. Bridges are numbered along the chain shown (N, C = ends). [ ]: non-standard residue; d: D form. Aad = N[C@@H](CCCC(=O)O)C(=O)O; Dab = NCC[C@H](N)C(=O)O; Mpa = O=C(O)CCS
How the values were obtained:
V1a receptor = target: T1, V1a receptor (Homo sapiens, UniProt P37288); assay: V1a Human Vasopressin GPCR Cell Based Agonist Calcium Flux Assay; conditions: for Emax: read-out: V1a Highest agonist effect (% of AVP)
T1 construct: host or cells: CHO cells
Experimental: Peptides of Formula (I) include Mpa-Tyr-Phe-Hgn-Asn-Cys-Pro-Lys(X)a-Gly-NH2 [SEQ ID NO. 24]; where (X)a is a peptide with “a” residues and each residue X is independently selected from Gly, and a D- or L-amino acid version of Ala, Lys, Orn, Glu, and Asp, where “a” is 0-10. V1a Human Vasopressin GPCR Cell Based Agonist Calcium Flux Assay were conducted at Eurofins Cerep SA (France) on a fee for service basis. Human recombinant CHO cells expressing human V1 receptors were distributed in microplates. Intracellular calcium signal was detected by fluorimetry, and the signal was acquired before and after addition of a known agonist concentration. The following agonist concentrations were tested (nM); 0.0128, 0.064, 0.32, 1.6, 8, 40, 200, and 1,000. […] All assays were performed in duplicate. Changes in fluorescence intensity reflected changes in the concentration of free cytosolic calcium. […] The half-maximal effective concentration (EC50) was determined by a non-linear regression analysis of the concentration-response curves generated with mean replicate values using Hill equation curve fitting (Cerep, I'Evescault, France).
V1a Human Vasopressin GPCR Cell Based Agonist Calcium Flux Assay were conducted using human recombinant CHO cells expressing human V1 receptor. Briefly, human recombinant CHO cells expressing human V1 receptor were distributed in microplates at 4.5×10^4 cells/well. The fluorescent probe (Fluo4 Direct, Invitrogen) mixed with probenicid in HBSS buffer (Invitrogen) complemented with 20 mM HEPES (Invitrogen) (pH 7.4) is then added into each well and equilibrated with the cells for 60 min at 37° C. then 15 min at 22° C. Thereafter, the assay plates are positioned in a microplate reader (CellLux, PerkinElmer) which is used for the addition of the test compound, reference agonist or HBSS buffer (basal control), and the measurements of changes in fluorescence intensity which varies proportionally to the free cytosolic Ca^2+ ion concentration. The following agonist concentrations were tested (nM), 0.0128, 0.064, 0.32, 1.6, 8, 40, 200, and 1,000. […] All assays were performed in duplicate. Changes in fluorescence intensity reflected changes in the concentration of free cytosolic calcium. […] Referring to FIG. 3 and Table 4, the half-maximal effective concentration (EC50) was determined by non-linear regression analysis of the concentration-response curves generated with mean replicate values using Hill equation curve fitting (Cerep, I'Evescault, France).

[1] = Therapeutic index (NOAEL/NOEL): paleness, lethargy, ataxia observation in Sprague-Dawley rats (Example 7); assay type: in vivo; conditions: for Paleness (Duration, hrs; SD) / Highest dose with no-observed effect level or paleness (NOEL) / NOAEL/NOEL (therapeutic index) / NOAEL at 24 h / NOAEL: S.C.; for Highest dose with no-observed effect level or paleness (NOEL) / NOAEL/NOEL (therapeutic index) / NOAEL at 24 h / Marked adverse effect (Lowest dose first showed Ataxia) / Mild adverse effect (Lowest dose first showed Lethargy) / NOAEL: rat; for NOAEL at 24 h: male, Sprague-Dawley; for NOAEL at 24 h / Marked adverse effect (Lowest dose first showed Ataxia) / Mild adverse effect (Lowest dose first showed Lethargy) / NOAEL: in vivo, sc; for NOAEL at 24 h / NOAEL: read-out: Highest dose with no-observed adverse effect level without lethargy (NOAEL)
Source text: As used herein, the term “therapeutic index” (TI; also referred to as therapeutic ratio) is a quantitative measure of the relative safety of a drug. […] For the purpose of the present application, lethargy is a lack of energy and/or sleepiness which is visually observed in rats as a lack of mobility, such as a lack of mobility even in the presence of human activity. For the purpose of present specification, peripheral vasoconstriction is visually observed by a paleness of the extremities (e.g., skin of hands, feet, ears, and lips). In rats, peripheral vasoconstriction is determined by a side-by-side comparison of ear paleness in treated subjects (e.g., Sprague Dawley rats, a white rat with easily visualizable changes in redness/paleness) vs. untreated control subjects. The V1a agonist (or partial agonist) with a high therapeutic index will have a better safety profile than that with a low therapeutic index by providing a wider margin of safety for dosing during the treatment of the disease. This NOAEL/NOEL ratio, being a quantitative measure of the relative safety, is a comparison of the amount of a therapeutic agent that causes the therapeutic effect (useful effect, vasoconstriction for the purpose of the present specification) to the amount that causes toxicity. A V1a agonist that causes severe vasoconstriction will affect not only the peripheral vessels, with several layer of smooth muscles, but also other vessels present in other organs (e.g., heart, lungs, kidney, brain) and this will result in observed lethargy and eventually ataxia. A partial agonist is less likely to reach such an extreme level of vasoconstriction and is believed to have a higher therapeutic index.
In this study, 8 to 10 weeks male Sprague-Dawley rats (Charles River; Wilmington, MA) under isoflurane anesthesia (n=3 or 6) were intravenously (IV) or subcutaneously (SC) injected or administered with various test articles. Prior to administration of test articles, the injection area was clipped free of fur, to allow for clear visualization of the dose site, and animal weight was measured and recorded. Animals were housed two per cage. […] Lethargy is when the animal eyes cannot fully open and is associated deep breathing and limited of movement even in the presence of human.

[2] = FIG. 2 / FIG. 3 legend, n=2, read-out: EC50 for V1a receptor
[3] = at the Marked adverse effect dose
[4] = at the Mild adverse effect dose
[5] = Table 3, cells printed in μM, read-out: Estimated V1a EC50, n = 2
[6] = Table 3, CHO cells expressing human V1 receptor, read-out: Estimated V1a EC50 (nM), n = 2

T1 sequence (P37288 whole entry): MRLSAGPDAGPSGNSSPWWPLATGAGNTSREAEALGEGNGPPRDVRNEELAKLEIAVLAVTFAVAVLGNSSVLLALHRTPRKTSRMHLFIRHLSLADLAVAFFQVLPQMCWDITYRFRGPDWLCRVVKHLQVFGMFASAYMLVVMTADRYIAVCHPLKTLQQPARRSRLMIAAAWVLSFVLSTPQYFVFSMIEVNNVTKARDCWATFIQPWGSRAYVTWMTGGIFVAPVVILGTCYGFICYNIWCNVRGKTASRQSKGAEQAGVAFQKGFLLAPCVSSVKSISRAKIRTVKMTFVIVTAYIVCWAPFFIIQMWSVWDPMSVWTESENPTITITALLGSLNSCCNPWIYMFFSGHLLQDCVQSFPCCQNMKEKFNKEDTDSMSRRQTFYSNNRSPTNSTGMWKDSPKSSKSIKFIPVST

Row | SMILES | EC50 (V1a receptor; [2]) | Emax (V1a receptor; Table 3, n = 2) | Paleness (Duration, hrs; SD) [1, 3] | Paleness (Duration, hrs; SD) [1, 4] | Paleness (Duration, hrs; SD) ([1]; at the NOAEL dose) | Paleness (Duration, hrs; SD) ([1]; at the NOEL dose) | Highest dose with no-observed effect level or paleness (NOEL) [1] | NOAEL/NOEL (therapeutic index) [1] | NOAEL at 24 h [1] | Marked adverse effect (Lowest dose first showed Ataxia) [1] | Mild adverse effect (Lowest dose first showed Lethargy) [1] | EC50 (V1a receptor; [5]) | NOAEL [1] | EC50 (V1a receptor; [6]) | Emax (V1a receptor; Table 4, n = 2)
1 | NCC(=O)NCC(=O)NCC(=O)NCC(=O)NCC(=O)NCC(=O)NCC(=O)NCC(=O)NCC(=O)NCCCC[C@H](NC(=O)[C@@H]1CCCN1C(=O)[C@@H]1CSSCCC(=O)N[C@@H](Cc2ccc(O)cc2)C(=O)N[C@@H](Cc2ccccc2)C(=O)N[C@@H](CCCC(N)=O)C(=O)N[C@@H](CC(N)=O)C(=O)N1)C(=O)NCC(N)=O [SEQ ID NO. 16, Mpa-Tyr-Phe-Hgn-Asn-Cys-Pro-Lys(X)a-Gly-NH2; (X)a = (Gly)9] | 0.105 µM | 28.1% | (>6.99)* hrs | (>6.14)* hrs | (7.14 ± 0.11) hrs | None observed | 0.005 mg/kg | 100 | 0.5 mg/kg | 5.0 mg/kg | 1.5 mg/kg | – | – | – | –
2 | CC(=O)NCCCC[C@H](NC(=O)[C@@H]1CCCN1C(=O)[C@@H]1CSSCCC(=O)N[C@@H](Cc2ccc(O)cc2)C(=O)N[C@@H](Cc2ccccc2)C(=O)N[C@@H](CCCC(N)=O)C(=O)N[C@@H](CC(N)=O)C(=O)N1)C(=O)NCC(N)=O [SEQ ID NO. 28, Mpa-Tyr-Phe-Hgn-Asn-Cys-Pro-Lys(X)a-Gly-NH2; (X)a = Ac] | – | 30% | – | – | – | – | 0.1 mg/kg | 3 | – | 3 mg/kg | 1 mg/kg | > 10 µM | 0.33 mg/kg | – | –
3 | CC(=O)NCC(=O)NCC(=O)NCC(=O)NCC(=O)NCC(=O)NCC(=O)NCC(=O)NCC(=O)NCC(=O)NCCCC[C@H](NC(=O)[C@@H]1CCCN1C(=O)[C@@H]1CSSCCC(=O)N[C@@H](Cc2ccc(O)cc2)C(=O)N[C@@H](Cc2ccccc2)C(=O)N[C@@H](CCCC(N)=O)C(=O)N[C@@H](CC(N)=O)C(=O)N1)C(=O)NCC(N)=O [SEQ ID NO. 26, Mpa-Tyr-Phe-Hgn-Asn-Cys-Pro-Lys(X)a-Gly-NH2; (X)a = (Gly)9-Ac] | – | 40% | – | – | – | – | – | – | – | – | – | > 10 µM | – | – | –
4 | NCC(=O)NCC(=O)NCC(=O)NCC(=O)NCCCC[C@H](NC(=O)[C@@H]1CCCN1C(=O)[C@@H]1CSSCCC(=O)N[C@@H](Cc2ccc(O)cc2)C(=O)N[C@@H](Cc2ccccc2)C(=O)N[C@@H](CCCC(N)=O)C(=O)N[C@@H](CC(N)=O)C(=O)N1)C(=O)NCC(N)=O [SEQ ID NO. 11, Mpa-Tyr-Phe-Hgn-Asn-Cys-Pro-Lys(X)a-Gly-NH2; (X)a = (Gly)4] | – | 33.6% | (>6.93)* hrs | (>6.85)* hrs | (6.02 ± 0.06) hrs | None Observed | 0.0015 mg/kg | 100 | 0.15 mg/kg | 1.5 mg/kg | 0.5 mg/kg | – | – | 0.161 µM | –
5 | NCC(=O)NCC(=O)NCC(=O)NCC(=O)NCC(=O)NCC(=O)NCC(=O)NCC(=O)NCCCC[C@H](NC(=O)[C@@H]1CCCN1C(=O)[C@@H]1CSSCCC(=O)N[C@@H](Cc2ccc(O)cc2)C(=O)N[C@@H](Cc2ccccc2)C(=O)N[C@@H](CCCC(N)=O)C(=O)N[C@@H](CC(N)=O)C(=O)N1)C(=O)NCC(N)=O [SEQ ID NO. 15, Mpa-Tyr-Phe-Hgn-Asn-Cys-Pro-Lys(X)a-Gly-NH2; (X)a = (Gly)8] | – | 24.8% | (>6.19)* hrs | (>6.17)* hrs | (5.68 ± 0.06) hrs | None Observed | 0.0015 mg/kg | 100 | 0.15 mg/kg | 1.5 mg/kg | 0.5 mg/kg | – | – | 0.226 µM | –
6 | NCC(=O)NCC(=O)NCC(=O)NCC(=O)NCC(=O)NCC(=O)NCCCC[C@H](NC(=O)[C@@H]1CCCN1C(=O)[C@@H]1CSSCCC(=O)N[C@@H](Cc2ccc(O)cc2)C(=O)N[C@@H](Cc2ccccc2)C(=O)N[C@@H](CCC(N)=O)C(=O)N[C@@H](CC(N)=O)C(=O)N1)C(=O)NCC(N)=O [SEQ ID NO. 20, Mpa-Tyr-Phe-Gln-Asn-Cys-Pro-Lys(X)a-Gly-NH2; (X)a = (Gly)6] | 0.0273 µM | – | (>6.76)* hrs | (>5.46)* hrs | (6.11 ± 0.09) hrs | None observed | 0.0015 mg/kg | 100 | 0.15 mg/kg | 5.0 mg/kg | 0.5 mg/kg | – | – | – | 60.9%
7 | NCC[C@H](NC(=O)[C@@H]1CCCN1C(=O)[C@@H]1CSSCCC(=O)N[C@@H](Cc2ccc(O)cc2)C(=O)N[C@@H](Cc2ccccc2)C(=O)N[C@@H](CCCC(N)=O)C(=O)N[C@@H](CC(N)=O)C(=O)N1)C(=O)NCC(N)=O [SEQ ID NO. 31, Mpa-Tyr-Phe-Hgn-Asn-Cys-Pro-Dab-Gly-NH2] ([Mpa]YF[Aad](NH2)NCP[Dab]G-NH2; disulfide 1-6) | – | – | – | – | – | – | 0.0005 mg/kg | – | – | 0.045 mg/kg | 0.015 mg/kg | – | 0.005 mg/kg | – | –
8 | NC[C@H](N)C(=O)NCCCC[C@H](NC(=O)[C@@H]1CCCN1C(=O)[C@@H]1CSSCCC(=O)N[C@@H](Cc2ccc(O)cc2)C(=O)N[C@@H](Cc2ccccc2)C(=O)N[C@@H](CCCC(N)=O)C(=O)N[C@@H](CC(N)=O)C(=O)N1)C(=O)NCC(N)=O [SEQ ID NO. 29, Mpa-Tyr-Phe-Hgn-Asn-Cys-Pro-Lys(X)a-Gly-NH2; (X)a = Dap] | – | 7.5% | – | – | – | – | – | – | – | – | – | – | – | – | –
9 | NCCC[C@H](NC(=O)[C@@H]1CCCN1C(=O)[C@@H]1CSSCCC(=O)N[C@@H](Cc2ccc(O)cc2)C(=O)N[C@@H](Cc2ccccc2)C(=O)N[C@@H](CCCC(N)=O)C(=O)N[C@@H](CC(N)=O)C(=O)N1)C(=O)NCC(N)=O [SEQ ID NO. 30, Mpa-Tyr-Phe-Hgn-Asn-Cys-Pro-Orn-Gly-NH2] | – | – | – | – | – | – | 0.0005 mg/kg | – | – | 0.044 mg/kg | 0.015 mg/kg | – | 0.005 mg/kg | – | –
